Species: Rattus norvegicus
Test: DrugMatrix - Regimen: Daily Repeat
Type: toxicity, organism-based, Sprague-Dawley
Design: regimen Daily Repeat, gender Male, age 6-8 weeks
Conditions: in vivo, po, route oral GAVAGE, vehicle 100 % WATER; for ABSOLUTE BASOPHIL / ABSOLUTE EOSINOPHIL / ABSOLUTE LYMPHOCYTE / ABSOLUTE MONOCYTE / ABSOLUTE SEGMENTED NEUTROPHIL / BASOPHIL / EOSINOPHIL / ERYTHROCYTE COUNT / HEMATOCRIT / HEMOGLOBIN / LEUKOCYTE COUNT / LYMPHOCYTE / MEAN CORPUSCULAR HEMOGLOBIN / MEAN CORPUSCULAR HEMOGLOBIN CONCENTRATION / MEAN CORPUSCULAR VOLUME / MONOCYTE / NEUTROPHIL / NUCLEATED RED BLOOD CELLS / PLATELET COUNT: tissue Blood; for ALANINE AMINOTRANSFERASE / ALBUMIN / ALKALINE PHOSPHATASE / ASPARTATE AMINOTRANSFERASE / BLOOD UREA NITROGEN / CARBON DIOXIDE / CHLORIDE / CHOLESTEROL / CREATINE PHOSPHOKINASE / CREATININE / GLUCOSE / LACTATE DEHYDROGENASE / LIPASE / PHOSPHORUS / POTASSIUM / SODIUM / TOTAL BILIRUBIN / TOTAL PROTEIN / URIC ACID: tissue Plasma
[1] = 8 mg/kg, 72 h, dose level Low, time 3 day
[2] = 8 mg/kg, 120 h, dose level Low, time 5 day
[3] = 78 mg/kg, 72 h, dose level High, time 3 day
[4] = 78 mg/kg, 120 h, dose level High, time 5 day

## NNc1ccccc1 [PHENYLHYDRAZINE]
[1]
  ABSOLUTE BASOPHIL: 0 CELLS/uL
  ABSOLUTE EOSINOPHIL: 0 CELLS/uL
  ABSOLUTE LYMPHOCYTE: 13454.67 CELLS/uL
  ABSOLUTE MONOCYTE: 235.67 CELLS/uL
  ABSOLUTE SEGMENTED NEUTROPHIL: 1043 CELLS/uL
  BASOPHIL: 0%
  EOSINOPHIL: 0%
  ERYTHROCYTE COUNT: 5.23 x10E6/uL
  HEMATOCRIT: 34.17%
  HEMOGLOBIN: 13.63 G/DL
  LEUKOCYTE COUNT: 14.73 x10E3/uL
  LYMPHOCYTE: 91.33%
  MEAN CORPUSCULAR HEMOGLOBIN: 26.1 pg
  MEAN CORPUSCULAR HEMOGLOBIN CONCENTRATION: 39.93 G/DL
  MEAN CORPUSCULAR VOLUME: 65.33 fL
  MONOCYTE: 1.33%
  NEUTROPHIL: 7.33%
  NUCLEATED RED BLOOD CELLS: 0 /100WBC
  PLATELET COUNT: 994.33 x10E3/uL
  ALANINE AMINOTRANSFERASE: 53 u/L
  ALBUMIN: 4.17 G/DL
  ALKALINE PHOSPHATASE: 388 u/L
  ASPARTATE AMINOTRANSFERASE: 115 u/L
  BLOOD UREA NITROGEN: 15.33 mg/dL
  CARBON DIOXIDE: 21.33 mmol/L
  CHLORIDE: 102.67 MEQ/L
  CHOLESTEROL: 102.33 mg/dL
  CREATINE PHOSPHOKINASE: 1080.67 u/L
  CREATININE: 0.13 mg/dL
  GLUCOSE: 177 mg/dL
  LACTATE DEHYDROGENASE: 308.67 u/L
  LIPASE: 9.33 u/L
  PHOSPHORUS: 14.53 mg/dL
  POTASSIUM: 6.82 MEQ/L
  SODIUM: 146.1 MEQ/L
  TOTAL BILIRUBIN: 0.17 mg/dL
  TOTAL PROTEIN: 5.87 G/DL
  URIC ACID: 2.1 mg/dL
[2]
  ABSOLUTE BASOPHIL: 0 CELLS/uL
  ABSOLUTE EOSINOPHIL: 0 CELLS/uL
  ABSOLUTE LYMPHOCYTE: 16277.67 CELLS/uL
  ABSOLUTE MONOCYTE: 115 CELLS/uL
  ABSOLUTE SEGMENTED NEUTROPHIL: 974 CELLS/uL
  BASOPHIL: 0%
  EOSINOPHIL: 0%
  ERYTHROCYTE COUNT: 5.53 x10E6/uL
  HEMATOCRIT: 35.4%
  HEMOGLOBIN: 14.27 G/DL
  LEUKOCYTE COUNT: 17.37 x10E3/uL
  LYMPHOCYTE: 93.67%
  MEAN CORPUSCULAR HEMOGLOBIN: 25.8 pg
  MEAN CORPUSCULAR HEMOGLOBIN CONCENTRATION: 40.3 G/DL
  MEAN CORPUSCULAR VOLUME: 64.07 fL
  MONOCYTE: 0.67%
  NEUTROPHIL: 5.67%
  NUCLEATED RED BLOOD CELLS: 0 /100WBC
  PLATELET COUNT: 1250.67 x10E3/uL
  ALANINE AMINOTRANSFERASE: 46.67 u/L
  ALBUMIN: 4.1 G/DL
  ALKALINE PHOSPHATASE: 440.67 u/L
  ASPARTATE AMINOTRANSFERASE: 81.67 u/L
  BLOOD UREA NITROGEN: 15.33 mg/dL
  CARBON DIOXIDE: 26.33 mmol/L
  CHLORIDE: 102 MEQ/L
  CHOLESTEROL: 63 mg/dL
  CREATINE PHOSPHOKINASE: 289 u/L
  CREATININE: 0.12 mg/dL
  GLUCOSE: 147.67 mg/dL
  LACTATE DEHYDROGENASE: 310.67 u/L
  LIPASE: 9 u/L
  PHOSPHORUS: 13.93 mg/dL
  POTASSIUM: 6.84 MEQ/L
  SODIUM: 144.13 MEQ/L
  TOTAL BILIRUBIN: 0.17 mg/dL
  TOTAL PROTEIN: 5.83 G/DL
  URIC ACID: 1.23 mg/dL
[3]
  ABSOLUTE BASOPHIL: 0 CELLS/uL
  ABSOLUTE EOSINOPHIL: 0 CELLS/uL
  ABSOLUTE LYMPHOCYTE: 24784.33 CELLS/uL
  ABSOLUTE MONOCYTE: 97 CELLS/uL
  ABSOLUTE SEGMENTED NEUTROPHIL: 9152 CELLS/uL
  BASOPHIL: 0%
  EOSINOPHIL: 0%
  ERYTHROCYTE COUNT: 3.43 x10E6/uL
  HEMATOCRIT: 24.43%
  LEUKOCYTE COUNT: 34.03 x10E3/uL
  LYMPHOCYTE: 73%
  MEAN CORPUSCULAR VOLUME: 71.33 fL
  MONOCYTE: 0.33%
  NEUTROPHIL: 26.67%
  NUCLEATED RED BLOOD CELLS: 21.67 /100WBC
  PLATELET COUNT: 1624.67 x10E3/uL
  ALANINE AMINOTRANSFERASE: 46 u/L
  ALBUMIN: 4.27 G/DL
  ALKALINE PHOSPHATASE: 266 u/L
  ASPARTATE AMINOTRANSFERASE: 107.67 u/L
  BLOOD UREA NITROGEN: 15 mg/dL
  CARBON DIOXIDE: 23.67 mmol/L
  CHLORIDE: 102.33 MEQ/L
  CHOLESTEROL: 53.33 mg/dL
  CREATINE PHOSPHOKINASE: 217.33 u/L
  CREATININE: 0.11 mg/dL
  GLUCOSE: 182.33 mg/dL
  LACTATE DEHYDROGENASE: 512.67 u/L
  LIPASE: 9.33 u/L
  PHOSPHORUS: 12.13 mg/dL
  POTASSIUM: 7.33 MEQ/L
  SODIUM: 141.1 MEQ/L
  TOTAL BILIRUBIN: 0.9 mg/dL
  TOTAL PROTEIN: 5.7 G/DL
  URIC ACID: 2 mg/dL
[4]
  ABSOLUTE BASOPHIL: 0 CELLS/uL
  ABSOLUTE EOSINOPHIL: 0 CELLS/uL
  ABSOLUTE LYMPHOCYTE: 25256 CELLS/uL
  ABSOLUTE MONOCYTE: 656 CELLS/uL
  ABSOLUTE SEGMENTED NEUTROPHIL: 6888 CELLS/uL
  BASOPHIL: 0%
  EOSINOPHIL: 0%
  ERYTHROCYTE COUNT: 2.84 x10E6/uL
  HEMATOCRIT: 25.3%
  LEUKOCYTE COUNT: 32.8 x10E3/uL
  LYMPHOCYTE: 77%
  MEAN CORPUSCULAR VOLUME: 89.1 fL
  MONOCYTE: 2%
  NEUTROPHIL: 21%
  NUCLEATED RED BLOOD CELLS: 31 /100WBC
  PLATELET COUNT: 1632 x10E3/uL
  ALANINE AMINOTRANSFERASE: 84 u/L
  ALBUMIN: 4.8 G/DL
  ALKALINE PHOSPHATASE: 311 u/L
  ASPARTATE AMINOTRANSFERASE: 313 u/L
  BLOOD UREA NITROGEN: 28 mg/dL
  CARBON DIOXIDE: 17 mmol/L
  CHLORIDE: 106 MEQ/L
  CHOLESTEROL: 81 mg/dL
  CREATINE PHOSPHOKINASE: 196 u/L
  CREATININE: 0.1 mg/dL
  GLUCOSE: 129 mg/dL
  LACTATE DEHYDROGENASE: 1486 u/L
  LIPASE: 10 u/L
  PHOSPHORUS: 11.1 mg/dL
  POTASSIUM: 6.59 MEQ/L
  SODIUM: 143.3 MEQ/L
  TOTAL BILIRUBIN: 2.2 mg/dL
  TOTAL PROTEIN: 6.2 G/DL
  URIC ACID: 2 mg/dL
